Results: patent US10344019B2 (priority 2010, dated 2019)
Like-named read-outs stand apart in the source and are kept apart here.

Experiments:
Format in all cases: cell-based
[1] = tested on: HCV 2a Rluc cells (NS5A chimeric genotype 2a JFH-1 replicon with genotype 2a J6 strain NS5A gene, M31 present); test: HCV replicon reporter assay, genotype 2a J6 (M31 present); settings: Hepatitis C virus, read-out: 2a J6
Protocol: Evaluation of cell-based anti-HCV activity: Antiviral potency (EC50) was determined using a Renilla luciferase (RLuc)-based HCV replicon reporter assay. To perform the assay for genotype 1 and 2a JFH-1, HCV 1b RLuc cells (harboring a dicistronic genotype 1b Con1 replicon that encodes a RLuc reporter), or HCV 1a RLuc cells (harboring a dicistronic genotype 1a H77 replicon that encodes a RLuc reporter), or HCV 2a JFH-1 Rluc cells (harboring a dicistronic genotype 2a JFH-1 replicon that encodes a RLuc reporter) were dispensed into 384-well plates. To perform the assay for genotype 2a (with M31 present) or 2b, HCV 2a Rluc or 2b Rluc cells (both with M31 present) harboring a dicistronic NS5A chimeric genotype 2a JFH-1 replicon that encodes a RLuc reporter and either genotype 2a J6 strain NS5A gene or genotype 2b MD2b-1 NS5A gene (based on Los Alamos HCV database isolates, both with M31 present) respectively, were dispensed into 384-well plates. To perform the assay for genotype 3 and 4, HCV 3a RLuc or 4a Rluc cells harboring a dicistronic NS5A chimeric genotype 1b Con1 replicon that encodes a RLuc reporter and either a consensus genotype 3a NS5A gene or genotype 4a NS5A gene (based on Los Alamos HCV database isolates) respectively, were dispensed into 384-well plates. Compounds were re-suspended in DMSO at a concentration of 10 mM and serially diluted in DMSO either manually or using an automated pipeting instrument. Serially diluted compounds were mixed with cell culture media and added to the seeded cells. […] 72 hours later, cells were lysed and Renilla luciferase activity quantified as recommended by the manufacturer (Promega-Madison, Wis.). Non-linear regression was performed to calculate EC50 values.

[2] = tested on: HCV 2a JFH-1 Rluc cells (dicistronic genotype 2a JFH-1 replicon, RLuc reporter); test: microbe, parasite or virus in culture; settings: Hepatitis C virus, genotype 2a JFH-1 replicon, read-out: 2a JFH
Summary of the method: (§1)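 Replicons used: genotype 1b Con1, 1a H77, 2a JFH-1, and a 2a JFH-1 chimera with J6-strain NS5A (M31 present), all dicistronic.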

[3] = tested on: HCV 3a RLuc cells (NS5A chimeric genotype 1b Con1 replicon with consensus genotype 3a NS5A gene); test: microbe, parasite or virus in culture; settings: Hepatitis C virus
Summary of the method: (§2)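 Replicon cells stably carrying the listed RLuc-encoding dicistronic replicons were seeded and treated with DMSO serial dilutions of compound (10 mM stocks) diluted into culture medium. After 72 h, cells were lysed and Renilla luciferase activity measured. EC50 was derived by non-linear regression.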

[4] = tested on: HCV 4a Rluc cells (NS5A chimeric genotype 1b Con1 replicon with genotype 4a NS5A gene); test: microbe, parasite or virus in culture; settings: Hepatitis C virus, read-out: 4a
Summary of the method: as §2

[5] = tested on: HCV 1b RLuc cells (dicistronic genotype 1b Con1 replicon, RLuc reporter); test: microbe, parasite or virus in culture; settings: Hepatitis C virus, read-out: 1b (nM)
Summary of the method: as §1

[6] = tested on: HCV 1a RLuc cells (dicistronic genotype 1a H77 replicon, RLuc reporter); test: microbe, parasite or virus in culture; settings: Hepatitis C virus, read-out: 1a
Summary of the method: as §1

[7] = read-out: 3a, genotype 3a replicon

| SMILES | EC50 [1] | EC50 ([2]; 72 h, Table 2, 72 hours) | EC50 ([3]; read-out: 3a, Table 2, genotype 3a NS5A chimeric replicon) | EC50 [4] | EC50 ([5]; 72 h) | EC50 ([6]; 72 h, Table 2, genotype 1a H77 replicon, 72 hours) | EC50 [2] | EC50 [3, 7] | EC50 [5] | EC50 ([6]; genotype 1a replicon) |
| --- | --- | --- | --- | --- | --- | --- | --- | --- | --- | --- |
| COC(=O)N[C@H](C(=O)N1[C@@H]2CC[C@@H](C2)[C@H]1c1ncc(-c2ccc(-c3ccc4c(ccc5nc([C@@H]6C[C@H]7C[C@H]7N6C(=O)[C@@H](NC(=O)OC)C(C)C)[nH]c54)c3)cc2)[nH]1)C(C)C [Example 98] | > 44 nM | 0.001 to 0.999 nM | 1 to 4.99 nM | 0.001 to 0.99 nM | 0.01 nM | 0.001 to 0.999 nM | – | – | – | – |
| COC(=O)N[C@H](C(=O)N1CCC[C@H]1c1nc2ccc3cc(-c4ccc(-c5cnc([C@@H]6[C@H]7CC[C@H](C7)N6C(=O)[C@H](NC(=O)OC)c6ccccc6)[nH]5)c(F)c4)ccc3c2[nH]1)C(C)C [Example 306] | > 44 nM | – | – | 0.001 to 0.99 nM | – | – | 0.001 to 0.999 nM | 0.001 to 0.99 nM | 0.011 nM | 0.001 to 0.999 nM |
| COC(=O)N[C@H](C(=O)N1[C@@H]2CC[C@@H](C2)[C@H]1c1ncc(-c2ccc(-c3ccc4c(ccc5nc([C@@H]6CCCN6C(=O)[C@H](NC(=O)OC)c6ccccc6)[nH]c54)c3)cc2)[nH]1)C(C)C [Example 315] | 1 to 44 nM | – | – | 0.001 to 0.99 nM | – | – | 0.001 to 0.999 nM | 0.001 to 0.99 nM | 0.023 nM | 0.001 to 0.999 nM |
| COC(=O)N[C@H](C(=O)N1CCC[C@H]1c1ncc(-c2cc3c4c(c2)COc2cc(-c5cnc([C@@H]6CCCN6C(=O)[C@@H](NC(=O)OC)C(C)C)[nH]5)cc(c2-4)OC3)[nH]1)C(C)C [Example 319] | 0.001 to 0.999 nM | – | – | 0.001 to 0.99 nM | – | – | 0.001 to 0.999 nM | 0.001 to 0.99 nM | 0.021 nM | 0.001 to 0.999 nM |
| COC(=O)N[C@H](C(=O)N1[C@@H]2CC[C@@H](C2)[C@H]1c1nc2ccc3cc(-c4ccc5c(ccc6nc([C@@H]7CCCN7C(=O)[C@H](NC(=O)OC)c7ccccc7)[nH]c65)c4)ccc3c2[nH]1)C1CCOCC1 [Example 345] | 0.001 to 0.999 nM | – | – | 0.001 to 0.99 nM | – | – | 0.001 to 0.999 nM | 0.001 to 0.99 nM | 0.066 nM | 0.001 to 0.999 nM |
| COC(=O)N[C@H](C(=O)N1CCC[C@H]1c1ncc(-c2cc3c4c(c2)OCc2cc(-c5cnc([C@@H]6CCCN6C(=O)[C@@H](NC(=O)OC)C6CCCC6)[nH]5)cc(c2-4)OC3)[nH]1)C1CCCC1 [Example 377] | – | – | – | 0.001 to 0.99 nM | – | – | 0.001 to 0.999 nM | 0.001 to 0.99 nM | 0.022 nM | 0.001 to 0.999 nM |
| COC(=O)N[C@H](C(=O)N1[C@@H]2CC[C@@H](C2)[C@H]1c1ncc(-c2ccc(-c3ccc4c(ccc5nc([C@@H]6C[C@H]7C[C@H]7N6C(=O)[C@@H](NC(=O)OC)C6CCOCC6)[nH]c54)c3)cc2)[nH]1)C(C)C [Example 378] | – | – | – | 0.001 to 0.99 nM | – | – | 0.001 to 0.999 nM | 0.001 to 0.99 nM | 0.036 nM | 0.001 to 0.999 nM |
| COC(=O)N[C@H](C(=O)N1CCC[C@H]1c1nc(Cl)c(-c2ccc(-c3ccc4cc(-c5[nH]c([C@@H]6CCCN6C(=O)[C@@H](NC(=O)OC)C(C)C)nc5Cl)ccc4c3)cc2)[nH]1)C(C)C [Example 380] | – | – | – | 0.001 to 0.99 nM | – | – | 0.001 to 0.999 nM | > 5 nM | 0.006 nM | 0.001 to 0.999 nM |
| COC(=O)N[C@H](C(=O)N1CC2(CC2)C[C@H]1c1nc(-c2ccc3c(c2)C(F)(F)c2cc(-c4ccc5nc([C@@H]6[C@H]7CC[C@H](C7)N6C(=O)[C@@H](NC(=O)OC)C(C)C)[nH]c5c4)ccc2-3)c(Cl)[nH]1)C(C)C [Example 382] | – | – | – | 0.001 to 0.99 nM | – | – | > 44 nM | > 5 nM | 0.006 nM | 0.001 to 0.999 nM |
| COC(=O)N[C@H](C(=O)N1CCC[C@H]1c1nc2ccc3cc(-c4ccc(-c5[nH]c([C@@H]6C[C@H]7C[C@H]7N6C(=O)[C@@H](NC(=O)OC)C(C)C)nc5Cl)cc4)ccc3c2[nH]1)C(C)C [Example 383] | – | – | – | 0.001 to 0.99 nM | – | – | 0.001 to 0.999 nM | 0.001 to 0.99 nM | 0.008 nM | 0.001 to 0.999 nM |
